Results as given in patent US6337417B1, “N-phenyltetrahydrophthalamic acid derivatives, methods of producing same, and herbicides containing same as effective components” (Central Glass Co., Ltd., priority 1994, dated 2002).

Tests used:
Format in all cases: in vivo
Design in all cases: key: 5: completely killed; 4: seriously injured; 3: considerably injured; 2: somewhat injured; 1: slightly injured; 0: not injured (normally grown)
[1] = tested on: aobiyu (slender amaranth, Amaranthus viridis); assay: Experiment 5 foliage treatment: aobiyu; settings: foliage spray of wettable powder suspension, evaluated 4 weeks after treatment
Method in brief: (§1)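 Compounds sprayed as wettable powder suspension onto pot-grown plants at the two- to three-leaf stage. Plants kept in a glasshouse and herbicidal effect scored 4 weeks after treatment.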

[2] = tested on: noasagao (blue morningglory, Ipomoea indica); assay: Experiment 6 foliage treatment: noasagao; settings: foliage spray of wettable powder suspension, evaluated 4 weeks after treatment
Method: (§2) Upon seedling stage (two- or three-leaved stage) of ichibi (velvetleaf, Abutilon theophrasti), onamomi (heartleaf cocklebur, Xanthium strumarium) (4 L stage), noasagao (blue morningglory, Ipomoea indica) and ooinutade (pale smartweed, Persicaria lapathifolia) which were grown on a cultivated soil put in pots of 1/8850 ares, a selected compound obtained in a manner analogous to Example 11, in suspended wettable powder, was sprayed to each plant. After that, the pots were kept in a glass chamber to allow each plant to grow, and after the lapse of 4 weeks from the treatment with the selected compounds the herbicidal effects were evaluated. The evaluation of the herbicidal effects was similarly conducted as that of Experiment 1.

[3] = tested on: cockspur (Panicum crus-galli); assay: Experiment 5 foliage treatment: cockspur; settings: foliage spray of wettable powder suspension, evaluated 4 weeks after treatment
Method in brief: as §1

[4] = tested on: hotarui (bulrush, Scirpus juncoides); assay: Experiment 4 flooded soil treatment: hotarui; settings: 4 weeks after treatment
From the text: (§3) Paddy soil (clay loam) was put into a pot so as to have a surface area of 1/15500 ares. Uniformly mixed seeds of several kinds of weeds, viz., nobie (barnyardgrass, Echinochloa spp.), broad-leaved weeds, hotarui (bulrush, Scirpus juncoides) and tamagayatsuri (small-flowered umbrellaplant, Cyperus difformis), were sown in the surface layer of the soil in each pot, and then paddy rice seedlings at the two- or three-leaved stage were transplanted into each pot to a depth of 2 cm, and water was fed into each pot so as to provide a 3 cm deep water layer on the soil surface. After 3 days, in other words at the initial stage of germination of nobie (barnyardgrass, Echinochloa spp.), a predetermined amount of a selected compound obtained in a manner analogous to Example 11 in the form of diluted aqueous solution was dropped into the water layer in each pot. After that, the pots were kept in a glass chamber to allow the paddy rice and the weeds to grow, and after the lapse of 4 weeks from the treatment with the selected compounds, the herbicidal effects and the degree of injury to the paddy rice were evaluated. The evaluation of the herbicidal effects was similarly conducted as to that of Experiment 1.

[5] = tested on: mehishiba (henry crabgrass, Digitaria cliaris); assay: Experiment 5 foliage treatment: mehishiba; settings: foliage spray of wettable powder suspension, evaluated 4 weeks after treatment
Method in brief: as §1

rice = assay: Experiment 5 foliage treatment: rice; settings: foliage spray of wettable powder suspension, evaluated 4 weeks after treatment
Method in brief: as §1

garden radish = assay: Experiment 5 foliage treatment: garden radish; settings: foliage spray of wettable powder suspension, evaluated 4 weeks after treatment
Method in brief: as §1

[6] = tested on: ichibi (velvetleaf, Abutilon theophrasti); assay: Experiment 6 foliage treatment: ichibi; settings: foliage spray of wettable powder suspension, evaluated 4 weeks after treatment
Method: as §2

broad-leaved weeds = assay: Experiment 4 flooded soil treatment: broad-leaved weeds; settings: 4 weeks after treatment
From the text: as §3

[7] = tested on: ooinutade (pale smartweed, Persicaria lapathifolia); assay: Experiment 6 foliage treatment: ooinutade; settings: foliage spray of wettable powder suspension, evaluated 4 weeks after treatment
Method: as §2

[8] = tested on: onamomi (heartleaf cocklebur, Xanthium strumarium); assay: Experiment 6 foliage treatment: onamomi; settings: foliage spray of wettable powder suspension, evaluated 4 weeks after treatment
Method: as §2

[9] = tested on: tamagayatsuri (small-flowered umbrellaplant, Cyperus difformis); assay: Experiment 4 flooded soil treatment: tamagayatsuri; settings: 4 weeks after treatment
From the text: as §3

paddy rice = assay: Experiment 4 flooded soil treatment: injury to paddy rice; settings: 4 weeks after treatment
From the text: as §3

[10] = tested on: nobie (barnyardgrass, Echinochloa spp.); assay: Experiment 4 flooded soil treatment: nobie; settings: 4 weeks after treatment
From the text: as §3

Row | Compound | Herbicidal Effect aobiyu ([1]; 40 g/10a) | Herbicidal Effect aobiyu ([1]; 80 g/10a) | Herbicidal Effect noasagao ([2]; 4 g/10a) | Herbicidal Effect noasagao ([2]; 8 g/10a) | Herbicidal Effect cockspur ([3]; 40 g/10a) | Herbicidal Effect cockspur ([3]; 80 g/10a) | Herbicidal Effect hotarui ([4]; 3.13 g/10a) | Herbicidal Effect hotarui ([4]; 6.25 g/10a) | Herbicidal Effect mehishiba ([5]; 40 g/10a) | Herbicidal Effect mehishiba ([5]; 80 g/10a) | Herbicidal Effect rice (rice; 40 g/10a) | Herbicidal Effect rice (rice; 80 g/10a) | Herbicidal Effect garden radish (garden radish; 40 g/10a) | Herbicidal Effect garden radish (garden radish; 80 g/10a) | Herbicidal Effect ichibi ([6]; 4 g/10a) | Herbicidal Effect ichibi ([6]; 8 g/10a) | Herbicidal Effect broad-leaved weed (broad-leaved weeds; 3.13 g/10a) | Herbicidal Effect broad-leaved weed (broad-leaved weeds; 6.25 g/10a) | Herbicidal Effect ooinutade ([7]; 4 g/10a) | Herbicidal Effect ooinutade ([7]; 8 g/10a) | also measured
1 | C#CC(C)Oc1cc(N(C(=O)C2=C(C(=O)OCCOCC)CCCC2)C(=O)c2cccnc2)c(F)cc1Cl (stereo not shown) [compound 60] | 5 | 5 | 5 | 5 | 1 | 1 | 4.5 | 4.5 | 4 | 5 | 2 | 4 | 5 | 5 | 5 | 5 | 5 | 5 | 5 | 5 | Herbicidal Effect onamomi ([8]; 4 g/10a): 5; Herbicidal Effect onamomi ([8]; 8 g/10a): 5; Herbicidal Effect tamagayatsuri ([9]; 3.13 g/10a): 5; Herbicidal Effect tamagayatsuri ([9]; 6.25 g/10a): 5; Injury of Paddy (paddy rice; 3.13 g/10a): 0.5; Injury of Paddy (paddy rice; 6.25 g/10a): 0.5; Herbicidal Effect nobie ([10]; 3.13 g/10a): 5; Herbicidal Effect nobie ([10]; 6.25 g/10a): 5
2 | COC(=O)C1=C(C(=O)N(C(=O)c2cccnc2)c2cc(C(=O)OC)c(Cl)cc2F)CCCC1 [compound 64] | 5 | 5 | 4 | 5 | 1 | 1 | 4 | 4 | 1 | 2 | 1 | 1 | 5 | 5 | 5 | 5 | 5 | 5 | 5 | 5 | Herbicidal Effect onamomi ([8]; 4 g/10a): 4; Herbicidal Effect onamomi ([8]; 8 g/10a): 5; Herbicidal Effect tamagayatsuri ([9]; 3.13 g/10a): 4; Herbicidal Effect tamagayatsuri ([9]; 6.25 g/10a): 4; Injury of Paddy (paddy rice; 3.13 g/10a): 0; Injury of Paddy (paddy rice; 6.25 g/10a): 0.5; Herbicidal Effect nobie ([10]; 3.13 g/10a): 5; Herbicidal Effect nobie ([10]; 6.25 g/10a): 5
3 | C#CC(C)Oc1cc(N(C(=O)C2=C(C(=O)OC)CCCC2)C(=O)c2cncc(C(=O)OC)c2)c(F)cc1Cl (stereo not shown) [compound 67] | 5 | 5 | 5 | 5 | 1 | 1 | 4 | 5 | 1 | 1 | 1 | 1 | 5 | 5 | 5 | 5 | 5 | 5 | 5 | 5 | Herbicidal Effect onamomi ([8]; 4 g/10a): 4; Herbicidal Effect onamomi ([8]; 8 g/10a): 5; Herbicidal Effect tamagayatsuri ([9]; 3.13 g/10a): 5; Herbicidal Effect tamagayatsuri ([9]; 6.25 g/10a): 5; Injury of Paddy (paddy rice; 3.13 g/10a): 0.5; Injury of Paddy (paddy rice; 6.25 g/10a): 0.5; Herbicidal Effect nobie ([10]; 3.13 g/10a): 5; Herbicidal Effect nobie ([10]; 6.25 g/10a): 5
4 | N-[4-chloro-2-fluoro-5-(1-methylpropargyloxy)phenyl]-N-nicotinyl-3,4,5,6-tetrahydrophthalamic acid methyl ester [compound 57] | 5 | 5 | 4 | 4 | 1 | 3 | 4.5 | 4.5 | 4 | 4 | 1 | 1 | 5 | 5 | 5 | 5 | 5 | 5 | 5 | 5 | Herbicidal Effect onamomi ([8]; 4 g/10a): 4; Herbicidal Effect onamomi ([8]; 8 g/10a): 4; Herbicidal Effect tamagayatsuri ([9]; 3.13 g/10a): 5; Herbicidal Effect tamagayatsuri ([9]; 6.25 g/10a): 5; Injury of Paddy (paddy rice; 3.13 g/10a): 0; Injury of Paddy (paddy rice; 6.25 g/10a): 0.5; Herbicidal Effect nobie ([10]; 3.13 g/10a): 5; Herbicidal Effect nobie ([10]; 6.25 g/10a): 5
